Molecules are shown by their SMILES. Where “and” joins values, the source holds several entries; their conditions need not be identical. Identical values can stand only once.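 1) Cells in 96-well plates. 2) Compound, 48 h, 5 concentrations. 3) Linear interpolation between surrounding doses. 4) Unreached endpoint = highest concentration. At the GI50, growth is halved. At the TGI there is no net growth.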

For 7 compounds, GI50 and TGI results are on record in PubChem BioAssay (NCI).

Test systems include HL-60(TB) leukemia; OVCAR-3 ovarian; T-47D breast; NCI-H522 lung; M14 melanoma; 786-0 renal; SF-539 CNS; OVCAR-5 ovarian; ACHN renal; U251 CNS.
Assay in all cases: growth of human tumour cells (NCI), 48 h

Turning to `c1ccc(-c2nn(-c3ccccc3)[n+](-c3ccccc3-c3ccccc3)n2)cc1`, the GI50 in the assay on HL-60(TB) leukemia is 0.238 µM; with OVCAR-3 ovarian, 0.416 µM; in the assay with T-47D breast, 0.974 µM; in the assay on NCI-H522 lung it was 0.478 µM; with M14 melanoma, 1.63 µM; with 786-0 renal, 2.96 µM. Besides, the GI50 with SF-539 CNS is 2.03 µM; in the assay with OVCAR-5 ovarian it was 4.19 µM; with ACHN renal, 5.38 µM; in the assay on U251 CNS, 0.533 µM. Further, the TGI was 0.878 µM in the assay with HL-60(TB) leukemia; 15.5 µM with OVCAR-3 ovarian; more than 42.1 µM in the assay on T-47D breast; 8.18 µM with NCI-H522 lung; 16.6 µM in the assay on M14 melanoma; 21.2 µM in the assay on 786-0 renal. Besides, the TGI in the assay on SF-539 CNS was 23.4 µM; in the assay with OVCAR-5 ovarian it was more than 100 µM; with ACHN renal, more than 100 µM; with U251 CNS, 61.8 µM.

Consider `Cc1cncc2cccc(S(=O)(=O)N3CCCNC[C@@H]3C)c12`, for which the GI50 in the assay with HL-60(TB) leukemia is 36.2 µM; with OVCAR-3 ovarian, 58.9 µM; in the assay on T-47D breast, more than 80.3 µM; in the assay with NCI-H522 lung, more than 23.1 µM; in the assay with M14 melanoma, more than 93.4 µM; in the assay with 786-0 renal, 14.6 µM. Also, the GI50 is 3.17 µM with SF-539 CNS, 17.1 µM in the assay on OVCAR-5 ovarian, 14.2 µM in the assay on ACHN renal and 57.2 µM in the assay on U251 CNS. In addition, the TGI in the assay on HL-60(TB) leukemia is 100 µM; in the assay on OVCAR-3 ovarian, more than 100 µM; with T-47D breast, more than 100 µM; in the assay with NCI-H522 lung, more than 100 µM; with M14 melanoma, more than 100 µM; in the assay on 786-0 renal, more than 100 µM. Also, the TGI is more than 56.7 µM with SF-539 CNS, more than 100 µM in the assay on OVCAR-5 ovarian, more than 100 µM in the assay with ACHN renal and more than 100 µM with U251 CNS.

Consider `COc1cc(C2CC(c3cc(Cl)c(C)cc3O)=NN2c2ccc(S(N)(=O)=O)cc2)cc(OC)c1OC` (stereo not drawn), for which the GI50 with HL-60(TB) leukemia was 2.95 µM; in the assay on OVCAR-3 ovarian, 2.19 µM; with T-47D breast it was 2.28 µM; with NCI-H522 lung it was 2.45 µM; with M14 melanoma, 2.02 µM; in the assay on 786-0 renal it was 2.21 µM. In addition, the GI50 in the assay on SF-539 CNS is 1.77 µM; in the assay with OVCAR-5 ovarian, 1.87 µM; in the assay on ACHN renal it was 2.78 µM; with U251 CNS, 2.84 µM. Further, the TGI came to 14.8 µM with HL-60(TB) leukemia; 4.77 µM in the assay on OVCAR-3 ovarian; 7.06 µM in the assay on T-47D breast; 6.73 µM with NCI-H522 lung; 4.29 µM in the assay on M14 melanoma; 4.29 µM in the assay with 786-0 renal. The TGI in the assay with SF-539 CNS is 3.37 µM; with OVCAR-5 ovarian, 4.28 µM; with ACHN renal, 8.33 µM; in the assay with U251 CNS, 8.89 µM.

Regarding `Clc1ccc2c(NCCNc3nc(Cl)nc4ccccc34)ccnc2c1`, the GI50 with HL-60(TB) leukemia was 0.231 µM; in the assay with OVCAR-3 ovarian, 1.29 µM; in the assay on T-47D breast, 1.39 µM; with NCI-H522 lung, 1.3 µM; in the assay with M14 melanoma it was 1.84 µM; in the assay on 786-0 renal it was 1.08 µM. The GI50 in the assay on SF-539 CNS is 1.6 µM; in the assay on OVCAR-5 ovarian it was 1.62 µM; in the assay on ACHN renal, 1.61 µM. The TGI amounted to 0.656 µM with HL-60(TB) leukemia; 2.68 µM in the assay with OVCAR-3 ovarian; 3.34 µM with T-47D breast; 2.76 µM with NCI-H522 lung; 3.51 µM in the assay with M14 melanoma; 2.46 µM in the assay with 786-0 renal. Also, the values for the TGI in the assay on SF-539 CNS, with OVCAR-5 ovarian and in the assay with ACHN renal were 3.12 µM, 3.09 µM and 3 µM, respectively.

As to `COc1cc2cc(C(=O)N3C[C@H](CCl)c4c3cc(O)c3ccccc43)[nH]c2c(OC)c1OC`, the TGI in the assay with HL-60(TB) leukemia was 0.0105 µM; in the assay with OVCAR-3 ovarian it was 14.4 µM; with T-47D breast, 0.362 µM; in the assay on 786-0 renal it was 0.493 µM and 0.0519 µM; in the assay on SF-539 CNS, 0.192 µM; in the assay with OVCAR-5 ovarian, 2.15 µM and 13.7 µM. Further, the TGI in the assay with ACHN renal was 0.581 µM; with U251 CNS it was 3.23 µM and 3.06 µM. Moreover, the GI50 was 0.0474 µM in the assay on OVCAR-3 ovarian; 0.0256 µM in the assay with T-47D breast; 0.0104 µM in the assay on NCI-H522 lung; 0.0268 µM in the assay with M14 melanoma; 0.0174 µM with 786-0 renal; 0.0237 µM in the assay on OVCAR-5 ovarian. For the same compound, the GI50 with U251 CNS was 0.019 µM.

Consider `O=C1c2ccccc2-c2c1c1ccccc1c(=O)n2CCCNCCO`, for which the GI50 in the assay with HL-60(TB) leukemia is 0.175 µM; in the assay with OVCAR-3 ovarian, 1.07 µM; in the assay with T-47D breast, 1.05 µM; in the assay on NCI-H522 lung, 0.689 µM; in the assay with M14 melanoma it was 1.21 µM; with 786-0 renal, 0.234 µM. Also, the GI50 in the assay with SF-539 CNS is 0.578 µM; in the assay on OVCAR-5 ovarian, 1.05 µM; in the assay with ACHN renal it was 0.195 µM; in the assay with U251 CNS, 0.302 µM. The TGI was determined as 0.88 µM in the assay on HL-60(TB) leukemia; 6.13 µM in the assay with OVCAR-3 ovarian; 7.58 µM with T-47D breast; 4.33 µM with NCI-H522 lung; 3 µM with M14 melanoma; 10.9 µM with 786-0 renal. For the same compound, the TGI in the assay with SF-539 CNS is 2.96 µM; with OVCAR-5 ovarian it was 7.27 µM; in the assay on ACHN renal it was 0.906 µM; in the assay with U251 CNS it was 5.61 µM.

On to `Cn1ccnc1C(=O)/C=C/c1ccc(CC(=O)Nc2cc(F)c(F)c(F)c2)cc1`, for which the GI50 in the assay with HL-60(TB) leukemia is 0.716 µM; with OVCAR-3 ovarian it was 1.36 µM; in the assay on T-47D breast, 1.29 µM; in the assay with NCI-H522 lung it was 2.64 µM; in the assay on M14 melanoma, 3.68 µM; in the assay on 786-0 renal, 2.44 µM. The GI50 with SF-539 CNS is 1.5 µM; in the assay with OVCAR-5 ovarian, 3.63 µM; in the assay on ACHN renal, 4.53 µM; with U251 CNS, 0.837 µM. The TGI in the assay on HL-60(TB) leukemia amounted to 2.45 µM; in the assay with OVCAR-3 ovarian it was 4.44 µM; in the assay with T-47D breast it was 8.14 µM; with NCI-H522 lung, 7.72 µM; with M14 melanoma, 8.45 µM; in the assay on 786-0 renal, 5.5 µM. In addition, the TGI amounted to 4.68 µM in the assay on SF-539 CNS, 9.39 µM in the assay on OVCAR-5 ovarian, 19.2 µM with ACHN renal and 3.2 µM in the assay on U251 CNS.
